In brackets after ≈: the same amount, converted by molar mass.
How the values were obtained:
Assay type in all cases: cell-based
Escherichia coli = test: MIC against clinical isolates; details: unit assumed
Staphylococcus aureus = test: MIC against clinical isolates; details: unit assumed
Klebsiella pneumoniae [1] = test: MIC against clinical isolates; details: unit assumed
Salmonella typhi = test: MIC against clinical isolates; details: unit assumed
Pseudomonas aeruginosa = test: MIC against clinical isolates; details: unit assumed
Salmonella typhi-murium = test: MIC against clinical isolates; details: unit assumed
Shigella sonnei = test: MIC against clinical isolates; details: clinical isolate JS 11232; unit assumed
Experimental: (§1) The minimum inhibitory concentrations (MIC) was determined by the plate method disclosed in "Chemotherapy" (Japan), Vol. 16, (1968), pages 98 - 99. The culture medium used was a Heart infusion agar (pH 7.4). The number of the cells per plate used in the inoculum as 10^4 (10^6 cells/ml).
(§2) MIC was determined in the same manner as in the preceding paragraph (1).

Shigella flexneri = test: MIC against clinical isolates; details: unit assumed
Experimental: as §1, §2

Klebsiella pneumoniae [2] = test: MIC against standard strain, plate method; details: unit assumed
In short: (§3)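 Plate-method MIC. Medium: heart infusion agar, pH 7.4. Inoculum: 10^4 cells per plate (10^6 cells/ml).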

[3] = system: Staphylococcus aureus 209p; test: MIC against standard strain, plate method; details: unit assumed
In short: as §3

[4] = system: Pseudomonas aeruginosa I.F.O.; test: MIC against standard strain, plate method; details: unit assumed
In short: as §3

Escherichia coli NIHJ = test: MIC against standard strain, plate method; details: unit assumed
In short: as §3

Proteus vulgaris 3027 = test: MIC against standard strain, plate method; details: Proteus vulgaris 3027, standard strain; unit assumed
In short: as §3

[5] = clinical isolate GN (number not given; Table 5-3)

SMILES: CCCCCCN1CCN(C(=O)N[C@@H](C(=O)N[C@@H]2C(=O)N3[C@@H]2SC(C)(C)[C@@H]3C(=O)O)c2ccccc2)C(=O)C1 [compound 13]
- MIC (Escherichia coli; clinical isolate GN 3465): 25 µg/mL (≈ 44.7 µM)
- MIC (Escherichia coli; clinical isolate K-3): 100 µg/mL (≈ 179 µM)
- MIC (Staphylococcus aureus; clinical isolate F-1): 12.5 µg/mL (≈ 22.3 µM)
- MIC (Staphylococcus aureus; clinical isolate F-2): 1.57 µg/mL (≈ 2.81 µM)
- MIC (Staphylococcus aureus; clinical isolate F-5): 200 µg/mL (≈ 357 µM)
- MIC (Staphylococcus aureus; clinical isolate MS 8619): 0.79 µg/mL (≈ 1.41 µM)
- MIC (Klebsiella pneumoniae [1]; clinical isolate GN 917): 12.5 µg/mL (≈ 22.3 µM)
- MIC (Klebsiella pneumoniae [1]; clinical isolate GN 4081): 25 µg/mL (≈ 44.7 µM)
- MIC (Klebsiella pneumoniae [1]; clinical isolate GN 4117): 25 µg/mL (≈ 44.7 µM)
- MIC (Salmonella typhi; clinical isolate SL 819): 6.25 µg/mL (≈ 11.2 µM)
- MIC (Salmonella typhi; clinical isolate SL 2169): 3.13 µg/mL (≈ 5.59 µM)
- MIC (Pseudomonas aeruginosa; clinical isolate GN 82): 50 µg/mL (≈ 89.3 µM)
- MIC (Pseudomonas aeruginosa; clinical isolate GN 163): 25 µg/mL (≈ 44.7 µM)
- MIC (Pseudomonas aeruginosa; clinical isolate GN 221): 50 µg/mL (≈ 89.3 µM)
- MIC (Pseudomonas aeruginosa; clinical isolate GN 376): 50 µg/mL (≈ 89.3 µM)
- MIC (Pseudomonas aeruginosa; clinical isolate GN 383): 50 µg/mL (≈ 89.3 µM)
- MIC (Pseudomonas aeruginosa; clinical isolate GN 1035): 50 µg/mL (≈ 89.3 µM)
- MIC (Pseudomonas aeruginosa; clinical isolate GN 1091): 25 µg/mL (≈ 44.7 µM)
- MIC (Pseudomonas aeruginosa; clinical isolate GN 2565): 50 µg/mL (≈ 89.3 µM)
- MIC (Pseudomonas aeruginosa; clinical isolate GN 2987): 12.5 µg/mL (≈ 22.3 µM)
- MIC (Pseudomonas aeruginosa; [5]): 50 µg/mL (≈ 89.3 µM)
- MIC (Pseudomonas aeruginosa; clinical isolate S-1): 50 µg/mL (≈ 89.3 µM)
- MIC (Pseudomonas aeruginosa; clinical isolate S-2): 50 µg/mL (≈ 89.3 µM)
- MIC (Pseudomonas aeruginosa; clinical isolate S-3): 100 µg/mL (≈ 179 µM)
- MIC (Pseudomonas aeruginosa; clinical isolate S-4): 50 µg/mL (≈ 89.3 µM)
- MIC (Salmonella typhi-murium; clinical isolate SL 858): 0.79 µg/mL (≈ 1.41 µM)
- MIC (Salmonella typhi-murium; clinical isolate SL 2136): 200 µg/mL (≈ 357 µM)
- MIC (Shigella sonnei): 12.5 µg/mL (≈ 22.3 µM)
- MIC (Shigella flexneri; clinical isolate JS 11215): 12.5 µg/mL (≈ 22.3 µM)
- MIC (Shigella flexneri; clinical isolate JS 11839): 1.57 µg/mL (≈ 2.81 µM)
- MIC (Klebsiella pneumoniae [2]): < 1.57 µg/mL
- MIC [3]: < 1.57 µg/mL
- MIC [4]: 25 µg/mL (≈ 44.7 µM)
- MIC (Escherichia coli NIHJ): < 1.57 µg/mL
- MIC (Proteus vulgaris 3027): < 1.57 µg/mL

SMILES: CCCCN1CCN(C(=O)N[C@@H](C(=O)N[C@@H]2C(=O)N3[C@@H]2SC(C)(C)[C@@H]3C(=O)O)c2ccccc2)C(=O)C1 [compound 14]
- MIC (Escherichia coli; clinical isolate GN 3465): 50 µg/mL (≈ 94 µM)
- MIC (Escherichia coli; clinical isolate K-2): 12.5 µg/mL (≈ 23.5 µM)
- MIC (Escherichia coli; clinical isolate K-3): 200 µg/mL (≈ 376 µM)
- MIC (Staphylococcus aureus; clinical isolate F-1): 12.5 µg/mL (≈ 23.5 µM)
- MIC (Staphylococcus aureus; clinical isolate F-5): 200 µg/mL (≈ 376 µM)
- MIC (Staphylococcus aureus; clinical isolate MS 8619): 0.79 µg/mL (≈ 1.49 µM)
- MIC (Klebsiella pneumoniae [1]; clinical isolate GN 917): 25 µg/mL (≈ 47 µM)
- MIC (Klebsiella pneumoniae [1]; clinical isolate GN 3850): 12.5 µg/mL (≈ 23.5 µM)
- MIC (Klebsiella pneumoniae [1]; clinical isolate GN 4081): 50 µg/mL (≈ 94 µM)
- MIC (Klebsiella pneumoniae [1]; clinical isolate GN 4117): 50 µg/mL (≈ 94 µM)
- MIC (Salmonella typhi; clinical isolate SL 819): 6.25 µg/mL (≈ 11.8 µM)
- MIC (Salmonella typhi; clinical isolate SL 2169): 3.13 µg/mL (≈ 5.89 µM)
- MIC (Pseudomonas aeruginosa; clinical isolate GN 82): 25 µg/mL (≈ 47 µM)
- MIC (Pseudomonas aeruginosa; clinical isolate GN 163): 25 µg/mL (≈ 47 µM)
- MIC (Pseudomonas aeruginosa; clinical isolate GN 221): 25 µg/mL (≈ 47 µM)
- MIC (Pseudomonas aeruginosa; clinical isolate GN 376): 50 µg/mL (≈ 94 µM)
- MIC (Pseudomonas aeruginosa; clinical isolate GN 383): 50 µg/mL (≈ 94 µM)
- MIC (Pseudomonas aeruginosa; clinical isolate GN 1035): 50 µg/mL (≈ 94 µM)
- MIC (Pseudomonas aeruginosa; clinical isolate GN 1091): 25 µg/mL (≈ 47 µM)
- MIC (Pseudomonas aeruginosa; clinical isolate GN 2565): 50 µg/mL (≈ 94 µM)
- MIC (Pseudomonas aeruginosa; clinical isolate GN 2987): 12.5 µg/mL (≈ 23.5 µM)
- MIC (Pseudomonas aeruginosa; [5]): 50 µg/mL (≈ 94 µM)
- MIC (Pseudomonas aeruginosa; clinical isolate S-1): 50 µg/mL (≈ 94 µM)
- MIC (Pseudomonas aeruginosa; clinical isolate S-2): 50 µg/mL (≈ 94 µM)
- MIC (Pseudomonas aeruginosa; clinical isolate S-3): 100 µg/mL (≈ 188 µM)
- MIC (Pseudomonas aeruginosa; clinical isolate S-4): 50 µg/mL (≈ 94 µM)
- MIC (Salmonella typhi-murium; clinical isolate SL 858): 1.57 µg/mL (≈ 2.95 µM)
- MIC (Salmonella typhi-murium; clinical isolate SL 2136): 200 µg/mL (≈ 376 µM)
- MIC (Shigella sonnei): 25 µg/mL (≈ 47 µM)
- MIC (Shigella flexneri; clinical isolate JS 11215): 25 µg/mL (≈ 47 µM)
- MIC [3]: < 1.57 µg/mL
- MIC [4]: 25 µg/mL (≈ 47 µM)
- MIC (Escherichia coli NIHJ): < 1.57 µg/mL
- MIC (Proteus vulgaris 3027): < 1.57 µg/mL
